# Results from PubChem BioAssay (NCI).
#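 Growth conditions: 96-well plates. Treatment: test compound, 48 hours, 5 concentrations. Analysis: linear interpolation between bracketing concentrations; unreached endpoints set to highest concentration. GI50 marks 50% less growth. TGI denotes the concentration required for complete inhibition of growth.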
# Legend:
# Test in all cases: DTP human tumour cell line panel, 48 h
# [1] = tested on: LOX IMVI melanoma
# [2] = tested on: OVCAR-8 ovarian
# [3] = tested on: ACHN renal
# [4] = tested on: TK-10 renal
# [5] = tested on: HOP-62 NSCLC
# [6] = tested on: HT29 colon
# [7] = tested on: OVCAR-4 ovarian
# [8] = tested on: T-47D breast
# [9] = tested on: A498 renal
# [10] = tested on: 786-0 renal
# [11] = tested on: NCI-H460 lung
# [12] = tested on: K-562 leukemia
# [13] = tested on: HCC-2998 colon
# [14] = tested on: HS 578T breast
# [15] = tested on: M14 melanoma
# [16] = tested on: SW-620 colon
# [17] = tested on: KM12 colon
# [18] = tested on: UO-31 renal
# [19] = tested on: NCI-H522 lung
# [20] = tested on: NCI-H226 lung
# [21] = tested on: SN12C renal
# [22] = tested on: MDA-MB-231 breast
# [23] = tested on: SF-295 CNS
# [24] = tested on: MCF7 breast
# [25] = tested on: HCT-116 colon
# [26] = tested on: SK-MEL-5 melanoma
# [27] = tested on: SNB-75 CNS
# [28] = tested on: UACC-257 melanoma
# [29] = tested on: OVCAR-5 ovarian
# [30] = tested on: MOLT-4 leukemia
# [31] = tested on: UACC-62 melanoma
# [32] = tested on: NCI-H23 lung
# [33] = tested on: IGROV1 ovarian
# [34] = tested on: SK-MEL-28 melanoma
# [35] = tested on: MALME-3M melanoma
# [36] = tested on: NCI/ADR-RES ovarian
# [37] = tested on: SF-268 CNS
# [38] = tested on: PC-3 prostate
# [39] = tested on: EKVX NSCLC
# [40] = tested on: A549 NSCLC
# [41] = tested on: DU-145 prostate
# [42] = tested on: OVCAR-3 ovarian
# [43] = tested on: SK-OV-3 ovarian
# [44] = tested on: CCRF-CEM leukemia
# [45] = tested on: HL-60(TB) leukemia
# [46] = tested on: RPMI-8226 leukemia
# [47] = tested on: MDA-MB-435
# [48] = tested on: SF-539 CNS
# [49] = tested on: SNB-19 CNS
# [50] = tested on: RXF 393 renal
# [51] = tested on: CAKI-1 renal
# [52] = tested on: HCT-15 colon
# [53] = tested on: SK-MEL-2 melanoma
# [54] = tested on: U251 CNS
# [55] = tested on: COLO 205 colon
# [56] = tested on: HOP-92 NSCLC
smiles,measurement,setting,value
CCCOC(=O)CCn1c(SC)nc2[nH]cc(-c3ccccc3)c2c1=O,GI50,[1],10.9 µM
same,TGI,[1],30.9 µM
same,GI50,[2],20.5 µM
same,TGI,[2],> 100 µM
same,GI50,[3],22.2 µM
same,TGI,[3],77.2 µM
same,GI50,[4],47.3 µM
same,TGI,[4],> 100 µM
same,GI50,[5],5.49 µM
same,TGI,[5],88.2 µM
same,GI50,[6],15.5 µM
same,TGI,[6],61.6 µM
same,GI50,[7],29.2 µM
same,TGI,[7],95.8 µM
same,GI50,[8],11.7 µM
same,TGI,[8],62 µM
same,GI50,[9],27.9 µM
same,TGI,[9],87.9 µM
same,GI50,[10],2.71 µM
same,TGI,[10],> 100 µM
same,GI50,[11],13.4 µM
same,TGI,[11],> 100 µM
same,GI50,[12],3.95 µM
same,TGI,[12],43.1 µM
same,GI50,[13],73.5 µM
same,TGI,[13],> 100 µM
same,GI50,[14],28.1 µM
same,TGI,[14],> 100 µM
same,GI50,[15],15.6 µM
same,TGI,[15],> 100 µM
same,GI50,[16],28.3 µM
same,TGI,[16],> 100 µM
same,GI50,[17],18.7 µM
same,TGI,[17],53.8 µM
same,GI50,[18],23.9 µM
same,TGI,[18],75.5 µM
same,GI50,[19],11 µM
same,TGI,[19],32.5 µM
same,GI50,[20],18.9 µM
same,TGI,[20],61.2 µM
same,GI50,[21],20.1 µM
same,TGI,[21],> 100 µM
same,GI50,[22],38.3 µM
same,TGI,[22],> 100 µM
same,GI50,[23],11.1 µM
same,TGI,[23],52.4 µM
same,GI50,[24],19.7 µM
same,TGI,[24],> 100 µM
same,GI50,[25],15.4 µM
same,TGI,[25],41 µM
same,GI50,[26],15.9 µM
same,TGI,[26],35.1 µM
same,GI50,[27],13.4 µM
same,TGI,[27],57.6 µM
same,GI50,[28],33.8 µM
same,TGI,[28],> 100 µM
same,GI50,[29],> 100 µM
same,TGI,[29],> 100 µM
same,GI50,[30],1.16 µM
same,TGI,[30],15.1 µM
same,GI50,[31],11.7 µM
same,TGI,[31],26.5 µM
same,GI50,[32],8.34 µM
same,TGI,[32],43 µM
same,GI50,[33],13.5 µM
same,TGI,[33],49.6 µM
same,GI50,[34],20.3 µM
same,TGI,[34],58.8 µM
same,GI50,[35],18.5 µM
same,TGI,[35],51.8 µM
same,GI50,[36],25.4 µM
same,TGI,[36],> 100 µM
same,GI50,[37],14.5 µM
same,TGI,[37],> 100 µM
same,GI50,[38],14.6 µM
same,TGI,[38],50.1 µM
same,GI50,[39],33.9 µM
same,TGI,[39],> 100 µM
same,GI50,[40],15.8 µM
same,TGI,[40],65.8 µM
same,GI50,[41],27.8 µM
same,TGI,[41],> 100 µM
same,GI50,[42],19.9 µM
same,TGI,[42],54.1 µM
same,GI50,[43],38.3 µM
same,TGI,[43],> 100 µM
same,GI50,[44],1.37 µM
same,TGI,[44],35.1 µM
same,GI50,[45],1.77 µM
same,TGI,[45],23.2 µM
same,GI50,[46],12.7 µM
same,TGI,[46],33.6 µM
same,GI50,[47],17.5 µM
same,TGI,[47],38.5 µM
same,GI50,[48],24.9 µM
same,TGI,[48],> 100 µM
same,GI50,[49],31.7 µM
same,TGI,[49],> 100 µM
same,GI50,[50],19.1 µM
same,TGI,[50],54.8 µM
same,GI50,[51],19.6 µM
same,TGI,[51],54 µM
same,GI50,[52],37.7 µM
same,TGI,[52],> 100 µM
same,GI50,[53],25.5 µM
same,TGI,[53],63.5 µM
same,GI50,[54],12.8 µM
same,TGI,[54],87.4 µM
same,GI50,[55],19.1 µM
same,TGI,[55],46.5 µM
same,GI50,[56],3.64 µM
same,TGI,[56],40.4 µM
